Measured values taken from ChEMBL document CHEMBL2157998, “Synthesis and biological evaluation of new phenothiazine derivatives bearing a pyrazole unit as protein farnesyltransferase inhibitors” (Bioorg Med Chem Lett, 2012).

Molecular target: Protein farnesyltransferase (Homo sapiens, UniProt P49354+P49356)
Test: Inhibition of recombinant human FTase using dansyl-GCVLS as substrate at 100 uM after 15 mins by fluorimetric analysis
Type: protein-complex assay

SMILES | inhibition
N#Cc1cnn(C(=O)CCN2c3ccccc3Sc3ccccc32)c1N | 4.7%
Cc1c2c(nn1C(=O)CN1c3ccccc3Sc3ccccc31)CCCC2=O | 0%
Cc1c2c(nn1C(=O)CN1c3ccccc3Sc3ccccc31)CCCC2 | 0%
CCOC(=O)c1cc(-c2ccccc2)nn1CC(=O)N1c2ccccc2Sc2ccccc21 | 0%
CCOC(=O)C1=NN(C(=O)CN2c3ccccc3Sc3ccccc32)C(O)(c2ccccc2)C1 (stereo unspecified) | 30.7%
Cc1c2c(nn1C(=O)CCN1c3ccccc3Sc3ccccc31)CCCC2=O | 19.5%
Cc1c2c(nn1CC(=O)N1c3ccccc3Sc3ccccc31)CCCC2=O | 46.6%
Cc1cc(-c2ccccc2)n(CC(=O)N2c3ccccc3Sc3ccccc32)n1 | 0%
CCOC(=O)c1cc(-c2ccccc2)n(CC(=O)N2c3ccccc3Sc3ccccc32)n1 | 0%
CCOC(=O)C1=NN(C(=O)CCN2c3ccccc3Sc3ccccc32)C(O)(c2ccccc2)C1 (stereo unspecified) | 22.8%
Cc1cc(C)n(CC(=O)N2c3ccccc3Sc3ccccc32)n1 | 22.4%
